The source of these data is ChEMBL document CHEMBL1148111, “Synthesis and biological evaluation of hyperforin analogues. Part I. Modification of the enolized cyclohexanedione moiety” (J Nat Prod, 2002).

pIC50: −log10 of the molar value.

The target in this test is Sodium-dependent serotonin transporter (Rattus norvegicus, UniProt P31652). Description: Inhibition of [3H]5HT reuptake at serotonin transporter in rat brain synaptosomes. Format: subcellular.
Sodium-dependent serotonin transporter, sequence (P31652 whole entry): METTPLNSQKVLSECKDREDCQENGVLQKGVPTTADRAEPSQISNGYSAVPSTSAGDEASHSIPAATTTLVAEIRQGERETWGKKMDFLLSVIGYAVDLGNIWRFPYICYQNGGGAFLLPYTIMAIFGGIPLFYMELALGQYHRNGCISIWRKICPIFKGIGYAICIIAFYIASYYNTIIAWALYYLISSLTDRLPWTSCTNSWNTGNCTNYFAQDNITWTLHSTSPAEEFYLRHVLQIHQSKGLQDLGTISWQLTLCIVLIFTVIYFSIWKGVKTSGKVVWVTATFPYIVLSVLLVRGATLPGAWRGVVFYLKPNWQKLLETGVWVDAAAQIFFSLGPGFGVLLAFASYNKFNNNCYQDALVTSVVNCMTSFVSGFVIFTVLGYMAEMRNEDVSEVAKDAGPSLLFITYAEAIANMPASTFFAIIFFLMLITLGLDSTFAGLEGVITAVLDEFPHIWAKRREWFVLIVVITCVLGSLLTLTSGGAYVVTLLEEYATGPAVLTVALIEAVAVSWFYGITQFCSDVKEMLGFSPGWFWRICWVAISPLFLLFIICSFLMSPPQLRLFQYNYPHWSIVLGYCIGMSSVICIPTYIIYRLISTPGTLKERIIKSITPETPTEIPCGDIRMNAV
Consider `COC1=C(CC=C(C)C)C(=O)[C@]2(C(=O)C(C)C)C(=O)[C@]1(CC=C(C)C)C[C@H](CC=C(C)C)[C@@]2(C)CCC=C(C)C`, for which the negative logarithm of the IC50 (pIC50) was < 4.74.

For `CC(=O)OC1=C(CC=C(C)C)C(=O)[C@]2(C(=O)C(C)C)C(=O)[C@]1(CC=C(C)C)C[C@H](CC=C(C)C)[C@@]2(C)CCC=C(C)C` [HYPERFORIN ACETATE], the pIC50 is < 4.76.

For the compound `CC(C)=CCC[C@]1(C)[C@@H](CC=C(C)C)C[C@@]2(CC=C(C)C)C(=O)[C@]1(C(=O)C(C)C)C(=O)C1=C2OC(C)(C)C=C1` [DEHYDROHYPERFORIN], the pIC50 was < 4.73.

`CC(C)=CCC[C@]1(C)[C@@H](CC=C(C)C)C[C@@]2(CC=C(C)C)C(=O)[C@@]1(C(=O)C(C)C)C(=O)C(CC=C(C)C)=C2OC(=O)c1cc([N+](=O)[O-])cc([N+](=O)[O-])c1`: the pIC50 was < 4.86.

As to `CC(C)=C/C=C1\C(=O)[C@@]2(CC=C(C)C)C[C@H](CC=C(C)C)[C@@](C)(CCC=C(C)C)[C@](C(=O)C(C)C)(C1=O)C2=O`, the pIC50 is < 4.73.

For the compound `C=C(C)[C@@H]1C[C@@]23C[C@H](CC=C(C)C)[C@@](C)(CCC=C(C)C)[C@](C(=O)C(C)C)(C(=O)C(CC=C(C)C)=C2O1)C3=O` [DEHYDROFUROHYPERFORIN], the pIC50 is < 4.73.

On to `CC(C)=CCC[C@]1(C)[C@@H](CC=C(C)C)C[C@]2(CC=C(C)C)C(=O)[C@](C)(CC=C(C)C)C(=O)[C@]1(C(=O)C(C)C)C2=O` [C-Methylhyperforin], for which the pIC50 is < 4.74.

Regarding `COc1cc(C(=O)OC2=C(CC=C(C)C)C(=O)[C@@]3(C(=O)C(C)C)C(=O)[C@]2(CC=C(C)C)C[C@H](CC=C(C)C)[C@@]3(C)CCC=C(C)C)cc(OC)c1OC` [HYPERFORINTRIMETHOXYBENZOATE], the pIC50 was < 4.86.

Regarding `CC(C)=CCC[C@]1(C)[C@@H](CC=C(C)C)C[C@]23C[C@@H](C(C)(C)O)OC2=C(CC=C(C)C)C(=O)[C@]1(C(=O)C(C)C)C3=O`, the pIC50 is < 4.74.

Regarding `CC(C)=CCC[C@]1(C)[C@@H](CC=C(C)C)C[C@]2(CC=C(C)C)C(=O)[C@@](O)(CC=C(C)C)C(=O)[C@@]1(C(=O)C(C)C)C2=O`, the pIC50 is < 4.74.

Take `CC(C)=CCC[C@]1(C)[C@@H](CC=C(C)C)C[C@]2(CC=C(C)C)C(=O)[C@]3(CC=C(C)C)O[C@@]2(O)[C@@]1(C(=O)C(C)C)C3=O`: the pIC50 is < 4.74.

Compound `CC(C)=CCC[C@]1(C)[C@@H](CC=C(C)C)C[C@]2(CC=C(C)C)C(=O)C(CC=C(C)C)=C(O)[C@@]1(C(=O)C(C)C)C2=O` gave a pIC50 of 5.69.

For orientation: pIC50 means the negative decadic logarithm of the IC50, by convention in mol/L. A lower pIC50 goes with a high IC50.
